Data on three molecules can be found in paper PMC10784557, “In silico and in vitro prediction of new synthesized N-heterocyclic compounds as anti-SARS-CoV-2” (Scientific Reports, 2024).

In brackets after ≈: the same amount, converted by molar mass.

The test system of data set [1] is SARS-CoV-2 (hCoV-19/Egypt/NRC-03/2020). Kind of data set: Inhibitory concentration 50 (IC50) determination, virus-induced cytopathic effect, crystal violet. Format: cell-based. The note with it: Severe acute respiratory syndrome coronavirus 2, Vero C1008; Vero-E6 cells infected with hCoV-19/Egypt/NRC-03/2020, 72 h. How it is done: In 96-well tissue culture plates, 2.4 × 10^4 Vero-E6 cells were distributed in each well and incubated overnight at a humidified 37 °C incubator under 5%CO2 condition. The cell monolayers were then washed once with 1 × PBS and subjected to virus adsorption (hCoV-19/Egypt/NRC-03/2020 (Accession Number on GSAID: EPI_ISL_430820)) for 1 h at room temperature (RT). More details were provided in Supplementary Information.
3.4.Inhibitory concentration 50 (IC50) determination
In 96-well tissue culture plates, 2.4×10^4 Vero-E6 cells were distributed in each well and incubated overnight at a humidified 37°C incubator under 5%CO2 condition. The cell monolayers were then washed once with 1x PBS and subjected to virus adsorption (hCoV-19/Egypt/NRC-03/2020 (Accession Number on GSAID: EPI_ISL_430820)) for 1 h at room temperature (RT). The cell monolayers were further overlaid with 100μl of DMEM containing varying concentrations of the test compounds. Following incubation at 37°C in 5% CO2 incubator for 72 h, the cells were fixed with 100 μl of 4% paraformaldehyde for 20 min and stained with 0.1% crystal violet in distilled water for 15 min at RT. The crystal violet dye was then dissolved using 100 μl absolute methanol per well and the optical density of the color is measured at 570 nm using Anthos Zenyth 200rt plate reader (Anthos Labtec Instruments, Heerhugowaard, Netherlands). The IC50 of the compound is that required to reduce the virus -induced cytopathic effect (CPE) by 50%, relative to the virus control.

The nature of the next data set: in vitro. Conditions: African green monkey.

In general, IC50 refers to the midpoint of a concentration-inhibition curve. Consider `N=c1oc2ccccc2cc1-c1nnc(-c2cccnc2)o1` [Compound 5, 3-(5-(pyridin-3-yl)-1,3,4-oxadiazol-2-yl)-2H-chromen-2-imine], for which the IC50 in data set [1] turned out to be 55 µg/mL (≈ 189 µM). For the same molecule, in the data set “in vitro”, the CC50 at 24 h was found to be 312 µg/mL (≈ 1070 µM).
For `Clc1nc2ccccc2cc1C=Nc1nnc(-c2cccnc2)s1` [Compound 12, 1-(2-chloroquinolin-3-yl)-N-(5-(pyridin-3-yl)-1,3,4-thiadiazol-2-yl)methanimine] the same measures were 120 µg/mL (≈ 341 µM) and 512 µg/mL (≈ 1450 µM).
In data set [1], `C(=Nc1nnc(-c2cccnc2)s1)c1c[nH]c2ccccc12` [Compound 11, 1-(1H-indol-3-yl)-N-(5-(pyridin-3-yl)-1,3,4-thiadiazol-2-yl)methanimine] returned a 50% inhibitory concentration (IC50) of 216 µg/mL (≈ 707 µM). The molecule further gave a CC50 at 24 h in the data set “in vitro” of 552 µg/mL (≈ 1810 µM).
